# Measurements published in the supplement of paper PMC10307832.
# Columns and labels:
# Assay in all cases: relative viability (nuclei count vs DMSO), 5 days (fraction); higher = more cells survive
# Sulindac + Phenformin = compound: CC1=C(CC(=O)O)c2cc(F)ccc2/C1=C\c1ccc([S+](C)[O-])cc1 [Sulindac] + N=C(N)NC(=N)NCCc1ccccc1 [Phenformin] (partner 250 µM)
# Method in brief: (§1)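 Relative viability divides the nuclei count in treated wells by that in vehicle wells. Lung cancer cell lines were seeded in 1536-well plates, dosed by pin tool the next day, and fixed and stained after 5 days in one step with final 0.05% Triton X-100, 1% formaldehyde and 1 ug/ml Hoechst. Dosing was a single drug or a fixed anchor-drug dose plus five library-drug doses (not always all listed) in √10 steps, and values are medians of duplicate plates imaged at 4×.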
# [1] = compound: CN[C@@H]1C[C@H]2O[C@@](C)([C@@H]1OC)n1c3ccccc3c3c4c(c5c6ccccc6n2c5c31)C(=O)NC4 [Staurosporine] + CS(=O)(=O)CCNCc1ccc(-c2ccc3ncnc(Nc4ccc(OCc5cccc(F)c5)c(Cl)c4)c3c2)o1 [Lapatinib] (partner 2 µM)
# Method in brief: as §1
# [2] = compound: O=c1[nH]cc(F)c(=O)[nH]1 [5-Fluorouracil] + CCNC(=O)c1noc(-c2cc(C(C)C)c(O)cc2O)c1-c1ccc(CN2CCOCC2)cc1 [Luminespib] (partner 0.01 µM)
# Method in brief: as §1
# [3] = compound: O=c1[nH]cc(F)c(=O)[nH]1 [5-Fluorouracil] + Cc1nc(Nc2ncc(C(=O)Nc3c(C)cccc3Cl)s2)cc(N2CCN(CCO)CC2)n1 [Dasatinib] (partner 0.075 µM)
# Method in brief: as §1
cell line,measurement,setting,value
UMC-11,relative viability,Sulindac + Phenformin; first compound 0.08 µM,0.359
same,relative viability,Sulindac + Phenformin; first compound 0.253 µM,0.352
same,relative viability,Sulindac + Phenformin; first compound 0.8 µM,0.284
same,relative viability,Sulindac + Phenformin; first compound 2.53 µM,0.323
same,relative viability,Sulindac + Phenformin; first compound 8 µM,0.396
same,relative viability,[1]; first compound 0.005 µM,1.14
same,relative viability,[1]; first compound 0.01581 µM,0.158
same,relative viability,[1]; first compound 0.05 µM,0.408
same,relative viability,[1]; first compound 0.1581 µM,0.141
same,relative viability,[1]; first compound 0.5 µM,0.0855
same,relative viability,[2]; first compound 0.02 µM,0.954
same,relative viability,[2]; first compound 0.2 µM,0.68
same,relative viability,[2]; first compound 0.6325 µM,0.516
same,relative viability,[2]; first compound 2 µM,0.396
same,relative viability,[3]; first compound 0.02 µM,0.52
same,relative viability,[3]; first compound 0.2 µM,0.467
same,relative viability,[3]; first compound 0.6325 µM,0.438
same,relative viability,[3]; first compound 2 µM,0.358
